We go through two compounds from patent US11613768B2, “Microbial production of 2-phenylethanol from renewable substrates” (Arizona Board of Regents on behalf of Arizona State …, priority 2017, dated 2023).

One data set has as its system E. coli. Particulars: prior report, Kang et al., 2014; cited from earlier work.
The subject of a further data set is E. coli NST74. Briefly: Assaying 2PE toxicity: growth challenge with exogenous 2PE. The format is cell-based, Escherichia coli. The procedure: Error bars reported at one standard deviation from triplicate experiments.
The effects of 2PE on E. coli growth rate and yield was determined by monitoring the impacts of its exogenous addition at increasing final concentrations on growing cultures. Approximately 1 ml of an E. coli NST74 seed culture was used to inoculate 50 ml of LB broth in a 250 mL shake flask. When cultures reached OD600˜0.6, 2PE was added to the flasks at an array of final concentrations ranging from 0 to 2 g/L. Culturing then resumed for an additional 6 h with periodic monitoring of OD600.
To assess if 2PE production in these initial strains was perhaps limited by end-product inhibition, a growth challenge study was performed determine to the response of E. coli growth to the addition of exogenous 2PE at a range of increasing final concentrations (FIG. 4).

A further data set has as its target TyrB (Escherichia coli, UniProt P04693). Particulars: TyrB (Phe aminotransferase), substrate phenylpyruvate; cited from earlier work.
Another data set addresses T1, ARO10 (Saccharomyces cerevisiae, UniProt Q06408).
T1 sequence (Q06408 1-635): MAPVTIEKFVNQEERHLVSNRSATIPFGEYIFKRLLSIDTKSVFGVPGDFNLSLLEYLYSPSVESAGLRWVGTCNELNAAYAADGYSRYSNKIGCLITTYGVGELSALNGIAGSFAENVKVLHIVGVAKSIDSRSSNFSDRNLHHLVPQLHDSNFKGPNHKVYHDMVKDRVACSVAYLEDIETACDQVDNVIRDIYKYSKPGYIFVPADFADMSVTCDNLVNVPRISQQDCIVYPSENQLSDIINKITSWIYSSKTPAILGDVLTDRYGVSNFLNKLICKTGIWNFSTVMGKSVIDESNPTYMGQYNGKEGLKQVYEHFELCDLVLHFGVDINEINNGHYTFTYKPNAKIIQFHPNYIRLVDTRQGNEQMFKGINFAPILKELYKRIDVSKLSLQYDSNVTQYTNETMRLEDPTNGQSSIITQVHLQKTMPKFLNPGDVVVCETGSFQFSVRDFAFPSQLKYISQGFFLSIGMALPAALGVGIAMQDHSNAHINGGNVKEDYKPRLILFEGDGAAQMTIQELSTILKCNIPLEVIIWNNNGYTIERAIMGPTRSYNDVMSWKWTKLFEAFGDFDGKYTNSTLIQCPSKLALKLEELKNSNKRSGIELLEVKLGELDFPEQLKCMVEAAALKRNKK
Particulars: ARO10 (PPDC), substrate phenylpyruvate; cited from earlier work.

The mark [1] stands for this setting: exogenous 2PE added at OD600~0.6, LB broth, 6 h monitoring of OD600.

TyrB, sequence (P04693 whole entry): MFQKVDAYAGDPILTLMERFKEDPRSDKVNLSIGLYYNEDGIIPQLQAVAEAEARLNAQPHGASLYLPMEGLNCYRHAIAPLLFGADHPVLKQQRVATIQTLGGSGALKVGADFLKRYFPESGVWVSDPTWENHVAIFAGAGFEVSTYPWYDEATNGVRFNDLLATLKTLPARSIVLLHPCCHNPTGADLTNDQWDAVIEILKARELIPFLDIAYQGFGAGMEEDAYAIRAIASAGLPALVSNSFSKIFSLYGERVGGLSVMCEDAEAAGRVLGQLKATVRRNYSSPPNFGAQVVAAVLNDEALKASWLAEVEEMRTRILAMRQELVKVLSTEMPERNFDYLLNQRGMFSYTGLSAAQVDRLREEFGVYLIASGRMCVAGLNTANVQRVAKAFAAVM

Regarding `OCCc1ccccc1` [2PE, 2-phenylethanol], in the data set with E. coli, the “level reported to inhibit E. coli” value was about 1000 µg/mL. The compound further gave a toxicity threshold in the data set with E. coli NST74 (E. coli growth) of about 2 g/L. Also, in the data set with E. coli NST74 (setting [1]), the “2PE concentration at which growth rate and yield were reduced” value is given as 1 g/L; the “2PE concentration at which severe growth inhibition occurred” value was “about 2 g/L”.
A word on the Km: it is the substrate concentration at which the rate is half of its maximum. In the case of `O=C(O)C(=O)Cc1ccccc1` [phenylpyruvate], the Km on TyrB is 12 µM; at ARO10 it was 100 µM.
